Counter-ions that a name gives are not always drawn. Like-named read-outs stand apart in the source and are kept apart here.

35 compounds from US8901307B2, “Chemical compounds 251” (AstraZeneca AB, priority 2008, dated 2014) can be followed below.

For test [1], the target named is T1, human His-PIM2 [23-299] (Homo sapiens, UniProt Q9P1W9).
T1 construct: purified human His-PIM2 [23-299] enzyme; His (N); host or cells: E. coli
The test is described as follows: PIM2 in-vitro mobility shift assay (Caliper LC3000, FL-Ahx-Bad phosphorylation). Format: biochemical. The settings on record: 1.5 h; percent inhibition at 0.3 uM compound; read-out: PIM2 % I at 0.3 uM.

The target of test [2] is T2, human His-PIM1 [2-313] (Homo sapiens, UniProt P11309).
T2 construct: purified human His-PIM1 [2-313] enzyme; His (N); purchased University of Dundee, Scotland; host or cells: baculovirus system
T2 sequence (P11309 2-313): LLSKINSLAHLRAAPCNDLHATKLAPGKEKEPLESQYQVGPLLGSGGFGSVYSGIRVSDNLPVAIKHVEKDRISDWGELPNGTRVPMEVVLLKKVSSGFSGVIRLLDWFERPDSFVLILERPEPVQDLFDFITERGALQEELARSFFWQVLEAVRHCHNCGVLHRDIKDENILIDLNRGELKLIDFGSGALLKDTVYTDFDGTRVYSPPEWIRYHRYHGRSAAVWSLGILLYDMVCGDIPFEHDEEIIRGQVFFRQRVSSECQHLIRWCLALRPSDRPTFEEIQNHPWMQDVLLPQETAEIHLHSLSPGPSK
Put plainly: PIM1 in-vitro mobility shift assay (Caliper LC3000, FL-Ahx-Bad phosphorylation). It counts as biochemical. As to conditions: 1.5 h, read-out: PIM1 % I at 0.3 uM. Put shortly: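 Compound preincubated 20 min at 25 °C with 2.4 nM PIM1, 3.6 µM FL-Ahx-Bad peptide and 240 µM ATP (1.2× mix concentrations). Reaction started with 24 mM MgCl2 mix, run 90 min at 25 °C, EDTA-stopped. Phospho/unphospho peptide separated by microfluidic mobility shift; percent inhibition from ratiometric turnover.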

Where [3] appears, read: percent inhibition at 0.3 uM compound.

T1 sequence (Q9P1W9 23-299): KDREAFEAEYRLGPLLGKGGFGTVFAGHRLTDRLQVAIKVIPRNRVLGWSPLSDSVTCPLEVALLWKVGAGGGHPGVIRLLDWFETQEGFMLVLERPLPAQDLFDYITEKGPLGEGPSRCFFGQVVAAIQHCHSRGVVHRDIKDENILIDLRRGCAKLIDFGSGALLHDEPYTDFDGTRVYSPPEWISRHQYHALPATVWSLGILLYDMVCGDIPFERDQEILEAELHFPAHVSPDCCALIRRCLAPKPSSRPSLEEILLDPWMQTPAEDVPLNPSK

Turning to `NCc1cccc(C(=O)N2CCN(c3ccccc3/C=C3\SC(=O)NC3=O)CC2)c1` [Example 110, (Z)-5-(2-(4-(3-(aminomethyl)benzoyl)piperazin-1-yl)benzylidene)thiazolidine-2,4-dione hydrochloride], the inhibition at 0.3 µM in test [1] came to 90.7%; in test [2] (setting [3]) it was 90.9%.

For the compound `N[C@H]1CCN(c2c(Br)cccc2/C=C2\SC(=O)NC2=O)C1` [Example 122H, (S,Z)-5-(2-(3-aminopyrrolidin-1-yl)-3-bromobenzylidene)thiazolidine-2,4-dione hydrochloride], the inhibition at 0.3 µM in test [1] and in test [2] (setting [3]) was more than 95% in each case.

Consider `CN(C)CC(=O)N[C@H]1CCN(c2c(Cl)cccc2/C=C2\SC(=O)NC2=O)C1` [Example 145], for which the inhibition at 0.3 µM in test [1] was 80.1%; in test [2] (setting [3]) it was more than 95%.

As to `O=C1NC(=O)/C(=C/c2cccc(Cl)c2N2CCNCC2)S1` [Example 98, (Z)-5-(3-chloro-2-(piperazin-1-yl)benzylidene)thiazolidine-2,4-dione hydrochloride], the inhibition at 0.3 µM is 81.4% in test [1] and more than 95% in test [2] (setting [3]).

In the case of `N[C@@H]1CCCN(c2ccc(C(=O)O)cc2/C=C2\SC(=O)NC2=O)C1` [Example 122AG, (R,Z)-4-(3-aminopiperidin-1-yl)-3-((2,4-dioxothiazolidin-5-ylidene)methyl)benzoic acid hydrochloride], the inhibition at 0.3 µM came to 86.7% in test [1] and 68.9% in test [2] (setting [3]).

For `O=C1NC(=O)/C(=C/c2cc(C(F)(F)F)cc(Cl)c2N2CCC(N3CCCCC3)CC2)S1` [Example 31], the inhibition at 0.3 µM was 23.3% in test [1] and 92.8% in test [2] (setting [3]).

With `NC1CCN(c2c(Cl)cc(C(F)(F)F)cc2/C=C2\SC(=O)NC2=O)CC1` [Example 3], the inhibition at 0.3 µM in test [1] was 58%; in test [2] (setting [3]), more than 95%.

For the compound `O=C1NC(=O)/C(=C/c2cc(C(F)(F)F)cc(Cl)c2N2CCN(Cc3ccccc3Cl)CC2)S1` [Example 18], the inhibition at 0.3 µM in test [1] and in test [2] (setting [3]) was less than 5% each time.

Turning to `CC(=O)N1CCN(c2ccccc2/C=C2\SC(=O)NC2=O)CC1` [Example 130, (5Z)-5-[2-(4-acetylpiperazin-1-yl)benzylidene]-1,3-thiazolidine-2,4-dione], the inhibition at 0.3 µM was determined as 45.5% in test [1] and 66.2% in test [2].

Consider `NCCC(=O)N1CCN(c2ccccc2/C=C2\SC(=O)NC2=O)CC1` [Example 129A], for which the inhibition at 0.3 µM in test [1] and in test [2] (setting [3]) was more than 95% in each case.

As for `COc1ccc(OCCCN)c(C=C2SC(=O)NC2=O)c1` [Example 129C], the inhibition at 0.3 µM in test [1] amounted to 52.1%; in test [2] (setting [3]), 85%.

`CC(C)Oc1cccc(/C=C2\SC(=O)NC2=O)c1N1CCC[C@@H](N)C1` [Example 122O, (R,Z)-5-(2-(3-aminopiperidin-1-yl)-3-isopropoxybenzylidene)thiazolidine-2,4-dione hydrochloride]: the inhibition at 0.3 µM in test [1] and in test [2] (setting [3]) was more than 95% each time.

`O=C1NC(=O)/C(=C/c2cc(C(F)(F)F)ccc2N2CCNCC2)S1` [Example 87, (Z)-5-(2-(piperazin-1-yl)-5-(trifluoromethyl)benzylidene)thiazolidine-2,4-dione hydrochloride]: the results for the inhibition at 0.3 µM in test [1] and in test [2] (setting [3]) were 84.2% and more than 95%, respectively.

As to `O=C(Cc1ccncc1)N[C@H]1CCN(c2c(Cl)cccc2/C=C2\SC(=O)NC2=O)C1` [Example 140], the inhibition at 0.3 µM in test [1] amounted to 52%; in test [2] (setting [3]) it was 73.3%.

For the compound `N[C@@H]1CCCN(c2c(Cl)cccc2/C=C2\SC(=O)NC2=O)C1` [Example 122D, (R,Z)-5-(2-(3-aminopiperidin-1-yl)-3-chlorobenzylidene)thiazolidin-2,4-dione hydrochloride], the inhibition at 0.3 µM in test [1] and in test [2] (setting [3]) was more than 95% each time.

On to `COc1ccc(OCCN2CCOCC2)c(/C=C2\SC(=O)NC2=O)c1` [Example 62, (Z)-5-(5-methoxy-2-(2-morpholinoethoxy)benzylidene)thiazolidine-2,4-dione], for which the inhibition at 0.3 µM in test [1] came to 17.5%; in test [2] (setting [3]), 62.1%.

For `CN(C)C1CCN(c2ccccc2/C=C2\SC(=O)NC2=O)CC1` [Example 49, (5Z)-5-{2-[4-(dimethylamino)piperidin-1-yl]benzylidene}-1,3-thiazolidine-2,4-dione], the inhibition at 0.3 µM in test [1] was 86.3%; in test [2] (setting [3]) it was more than 95%.

For `COc1cc(/C=C2\SC(=O)NC2=O)c(N2CCC(N(C)C)CC2)cc1OC` [Example 54, (5Z)-5-{2-(4-(dimethylamino)piperidin-1-yl)-4,5-dimethoxybenzylidene}-thiazolidine-2,4-dione], the inhibition at 0.3 µM in test [1] turned out to be 73.1%; in test [2] (setting [3]), 88.1%.

Regarding `O=C1NC(=O)/C(=C/c2cc(C(F)(F)F)cc(Cl)c2N2CCN(c3ccc(F)cc3)CC2)S1` [Example 7], the inhibition at 0.3 µM in test [1] is less than 5%; in test [2] (setting [3]) it was 5.4%.

As to `COc1cc(/C=C2\SC(=O)NC2=O)c(N2CCC(NC(C)=O)C2)cc1OC` (stereo not shown) [Example 131A], the inhibition at 0.3 µM is less than 5% in test [1] and 27.1% in test [2] (setting [3]).

`Cc1noc(C2CCN(c3c(Cl)cc(C(F)(F)F)cc3/C=C3\SC(=O)NC3=O)CC2)n1` [Example 9]: the inhibition at 0.3 µM was less than 5% in test [1] and 6.9% in test [2] (setting [3]).

For the compound `NCCCN1CCN(c2ccccc2/C=C2\SC(=O)NC2=O)CC1` [Example 127], the inhibition at 0.3 µM in test [1] and in test [2] (setting [3]) was more than 95% throughout.

Take `O=C1NC(=O)/C(=C/c2ccccc2N2CCOCC2)S1` [Example 82, (5Z)-5-(2-morpholin-4-ylbenzylidene)-1,3-thiazolidine-2,4-dione]: the inhibition at 0.3 µM worked out at 58.2% in test [1] and 87.4% in test [2] (setting [3]).

In the case of `COc1cccc(/C=C2\SC(=O)NC2=O)c1N1CCN(C(=O)CCN)CC1` [Example 94, (Z)-5-(2-(4-(3-aminopropanoyl)piperazin-1-yl)-3-methoxybenzylidene)thiazolidine-2,4-dione hydrochloride], the inhibition at 0.3 µM in test [1] and in test [2] (setting [3]) was more than 95% throughout.

Take `CCCN(CCC)[C@@H]1CCCN(c2c(Cl)cccc2/C=C2\SC(=O)NC2=O)C1` [Example 148, (R,Z)-5-(3-chloro-2-(3-(dipropylamino)piperidin-1-yl)benzylidene)thiazolidine-2,4-dione]: the inhibition at 0.3 µM in test [1] was found to be 60.8%; in test [2] (setting [3]) it was 91.5%.

As for `N[C@H]1CCN(c2ccc(C(F)(F)F)cc2/C=C2\SC(=O)NC2=O)C1` [Example 88, (S,Z)-5-(2-(3-aminopyrrolidin-1-yl)-5-(trifluoromethyl)benzylidene)thiazolidine-2,4-dione hydrochloride], the figures for the inhibition at 0.3 µM in test [1] and in test [2] (setting [3]) were 88.4% and more than 95%, respectively.

As for `N[C@@H]1CCCN(c2ccccc2/C=C2\SC(=O)NC2=O)C1` [Example 122W, (R,Z)-5-(2-(3-aminopiperidin-1-yl)benzylidene)thiazolidine-2,4-dione hydrochloride], the inhibition at 0.3 µM in test [1] and in test [2] (setting [3]) was more than 95% in each case.

On to `COc1cc(/C=C2\SC(=O)NC2=O)c(N2CCC(N(C)C)C2)cc1OC` (stereo not shown) [Example 52, (5Z)-5-{2-[4-(dimethylamino)pyrrolidin-1-yl]-4,5-dimethoxybenzylidene}-1,3-thiazolidine-2,4-dione], for which the inhibition at 0.3 µM is 93.5% in test [1] and more than 95% in test [2] (setting [3]).

In the case of `NCc1ccc(CN[C@@H]2CCCN(c3c(Cl)cccc3/C=C3\SC(=O)NC3=O)C2)cc1` [Example 122R, (R,Z)-5-(2-(3-(4-(aminomethyl)benzylamino)piperidin-1-yl)-3-chlorobenzylidene)thiazolidine-2,4-dione hydrochloride], the figures for the inhibition at 0.3 µM in test [1] and in test [2] (setting [3]) were 89.6% and more than 95%, respectively.

`CNC1CN(c2c(Cl)cccc2/C=C2\SC(=O)NC2=O)CCC1C` (stereo not shown) [Example 122U, (Z)-5-(3-chloro-2-(4-methyl-3-(methylamino)piperidin-1-yl)benzylidene)thiazolidine-2,4-dione hydrochloride]: the inhibition at 0.3 µM in test [1] and in test [2] (setting [3]) was more than 95% in each case.

For `Cn1cc(C(=O)N[C@H]2CCN(c3c(Cl)cccc3/C=C3\SC(=O)NC3=O)C2)cn1` [Example 141], the inhibition at 0.3 µM in test [1] was less than 5%; in test [2] (setting [3]), 34.9%.

Take `COc1cc(/C=C2\SC(=O)NC2=O)c(N2CC[C@H](NCCCN)C2)cc1OC` [Example 121, (S,Z)-5-(2-(3-(3-aminopropylamino)pyrrolidin-1-yl)-4,5-dimethoxybenzylidene)thiazolidine-2,4-dione hydrochloride]: the results for the inhibition at 0.3 µM in test [1] and in test [2] (setting [3]) were 87.4% and more than 95%, respectively.

In the case of `Cn1nnc2cc(/C=C3\SC(=O)NC3=O)ccc21` [Example 73, (5Z)-5-[(1-methyl-1H-1,2,3-benzotriazol-5-yl)methylene]-1,3-thiazolidine-2,4-dione], the inhibition at 0.3 µM in test [1] and in test [2] (setting [3]) was less than 5% in each case.

For `O=C(CN1CC[S+]([O-])CC1)N[C@H]1CCN(c2c(Cl)cccc2/C=C2\SC(=O)NC2=O)C1` [Example 142], the inhibition at 0.3 µM in test [1] is 75.2%; in test [2] (setting [3]) it was 86.1%.

Regarding `O=C1NC(=O)/C(=C/c2cc(C(F)(F)F)cc(Cl)c2N2CCN(CC3CC3)CC2)S1` [Example 21], the inhibition at 0.3 µM turned out to be 15.8% in test [1] and 82.9% in test [2] (setting [3]).
